Data reported in ChEMBL document CHEMBL5614367, “Hydroxamic acid hybrids: Histone deacetylase inhibitors with anticancer therapeutic potency” (Eur J Med Chem, 2023).
Blank lines part the entries; values can stand above or below the molecule they belong to.

What was measured:
BE(2)-C [1] = test: Antitumor activity against human BE2C cells xenografted in mouse assessed as tumor growth inhibition at 5 mg/kg, ip relative to control; assay type: functional; conditions: read-out: TGI
BE(2)-C [2] = test: Antitumor activity against human BE2C cells xenografted in mouse assessed as tumor growth inhibition at 5 mg/kg, ip in presence of 50 mg/kg vorinostat relative to control; assay type: functional; conditions: read-out: TGI
[3] = target: T1, Protein deacetylase HDAC6 (Homo sapiens, UniProt Q9UBN7); test: Inhibition of HDAC6 (unknown origin)
T1 sequence (Q9UBN7 whole entry): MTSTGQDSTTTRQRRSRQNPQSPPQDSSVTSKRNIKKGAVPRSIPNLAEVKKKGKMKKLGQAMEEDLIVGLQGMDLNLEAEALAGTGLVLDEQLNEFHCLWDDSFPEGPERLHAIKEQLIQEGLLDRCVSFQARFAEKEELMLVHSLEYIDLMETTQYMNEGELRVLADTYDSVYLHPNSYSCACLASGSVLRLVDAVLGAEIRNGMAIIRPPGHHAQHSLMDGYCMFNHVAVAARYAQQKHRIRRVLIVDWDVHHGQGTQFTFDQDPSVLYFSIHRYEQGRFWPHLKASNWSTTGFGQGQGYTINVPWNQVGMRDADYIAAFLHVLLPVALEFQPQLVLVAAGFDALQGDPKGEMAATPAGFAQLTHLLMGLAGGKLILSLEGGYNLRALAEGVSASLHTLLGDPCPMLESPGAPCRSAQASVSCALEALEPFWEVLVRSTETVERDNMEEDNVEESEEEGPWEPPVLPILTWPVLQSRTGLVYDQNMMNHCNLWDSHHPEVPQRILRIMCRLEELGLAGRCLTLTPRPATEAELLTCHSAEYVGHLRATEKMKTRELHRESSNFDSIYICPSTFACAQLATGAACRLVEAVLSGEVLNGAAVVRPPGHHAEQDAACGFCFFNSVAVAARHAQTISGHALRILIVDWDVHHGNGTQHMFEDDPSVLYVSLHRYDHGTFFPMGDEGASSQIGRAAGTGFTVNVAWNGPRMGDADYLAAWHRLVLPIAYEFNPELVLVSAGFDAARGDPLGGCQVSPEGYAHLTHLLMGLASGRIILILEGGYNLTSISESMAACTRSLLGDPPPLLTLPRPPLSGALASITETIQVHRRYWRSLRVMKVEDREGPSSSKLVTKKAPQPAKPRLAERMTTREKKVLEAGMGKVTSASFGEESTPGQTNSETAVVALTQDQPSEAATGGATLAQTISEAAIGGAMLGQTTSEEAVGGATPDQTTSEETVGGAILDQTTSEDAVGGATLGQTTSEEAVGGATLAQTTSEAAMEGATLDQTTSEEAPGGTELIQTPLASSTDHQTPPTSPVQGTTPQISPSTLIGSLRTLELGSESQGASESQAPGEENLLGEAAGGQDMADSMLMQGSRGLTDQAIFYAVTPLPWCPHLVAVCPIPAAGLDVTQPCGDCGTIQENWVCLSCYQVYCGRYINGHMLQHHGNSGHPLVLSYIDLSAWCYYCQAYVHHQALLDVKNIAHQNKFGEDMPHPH

U-87 MG [4] = test: cells; assay type: functional, cell-based, U-87MG ATCC; conditions: Homo sapiens, 72 h
Description: Antiproliferative activity against human U-87 MG cells assessed as inhibition of cell growth measured after 72 hrs by MTT assay

C6 [5] = test: cells; assay type: functional, cell-based; conditions: Rattus norvegicus, C6, 72 h
Description: Antiproliferative activity against rat C6 cells assessed as inhibition of cell growth measured after 72 hrs by MTT assay

U-87 MG [6] = test: Antitumor activity against luciferase-transferred human U-87 MG cells xenografted in athymic nude mouse assessed as survival time at 25 mg/kg, po measured for 20 days; assay type: functional, U-87MG ATCC; conditions: time 20 day
C6 [7] = test: Antitumor activity against rat C6 cells allografted in Sprague-Dawley rat assessed as survival time at 20 mg/kg, po measured for 20 days; assay type: functional; conditions: time 20 day
U-266 = test: cells; assay type: functional, cell-based; conditions: Homo sapiens, U-266, 48 h
U-937 = test: cells; assay type: functional, cell-based; conditions: Homo sapiens, U-937, 48 h
HepG2 [8] = test: cells; assay type: functional, cell-based; conditions: Homo sapiens, HepG2, 48 h
Calu-3 = test: cells; assay type: functional, cell-based; conditions: Homo sapiens, Calu-3, 48 h
cells = assay type: functional, cell-based; conditions: Homo sapiens, SPCA1, 48 h
MDA-MB-231 = test: cells; assay type: functional, cell-based; conditions: Homo sapiens, MDA-MB-231, 48 h
MDA-MB-468 = test: cells; assay type: functional, cell-based; conditions: Homo sapiens, MDA-MB-468, 48 h
SK-OV-3 [9] = test: cells; assay type: functional, cell-based; conditions: Homo sapiens, SK-OV-3, 48 h
K562 = test: cells; assay type: functional, cell-based; conditions: Homo sapiens, K562, 48 h
PANC-1 = test: cells; assay type: functional, cell-based; conditions: Homo sapiens, PANC-1, 48 h
Histone deacetylase 3 = Histone deacetylase 3 (Homo sapiens, UniProt O15379); test: Inhibition of recombinant HDAC3 (unknown origin) using Boc-Lys (acetyl)-AMC as substrate preincubated for 1 hr followed by substrate addition and measured after 2 hrs by fluorescence based analysis
HepG2 [10] = test: animal or person; assay type: functional, Homo sapiens; conditions: Mus musculus, HepG2, po, 384 h, route ig, time 16 day
SK-OV-3 [11] = test: Antiproliferative activity against human SK-OV-3 cells assessed as inhibition of cell growth incubated for 72 hrs by CCK-8 assay; assay type: functional, cell-based; conditions: SK-OV-3, 72 h
A2780 = test: Antiproliferative activity against human A2780 cells assessed as inhibition of cell growth incubated for 72 hrs by CCK-8 assay; assay type: functional, cell-based; conditions: A2780, 72 h
SK-OV-3 [12] = test: Antitumor activity against human SK-OV-3 cells xenografted in female Balb/c nude mouse assessed as reduction in tumor growth at 50 mg/kg, sc administered once a day and measured every 2 to 3 days for 19 days relative to control; assay type: functional; parameters: scale not given: the % may be the effect or the level left; conditions: time 19 day
A549 = test: Antiproliferative activity against human A549 cells
HepG2 [13] = test: Antiproliferative activity against human HepG2 cells; assay type: functional, cell-based
Histone deacetylase 1 = Histone deacetylase 1 (Homo sapiens, UniProt Q13547); test: Inhibition of HDAC1 (unknown origin)
HT-29 = test: Antiproliferative activity against human HT-29 cells; assay type: functional, cell-based
[14] = Cytotoxicity against human L02 cells; assay type: toxicity, cell-based
[15] = Cytotoxicity against human NCM460 cells; assay type: toxicity, cell-based
HCT-116 = test: cells; conditions: Homo sapiens
Description: Antiproliferative activity against human HCT-116 cells

Chain of Histone deacetylase 1 (Q13547 whole entry): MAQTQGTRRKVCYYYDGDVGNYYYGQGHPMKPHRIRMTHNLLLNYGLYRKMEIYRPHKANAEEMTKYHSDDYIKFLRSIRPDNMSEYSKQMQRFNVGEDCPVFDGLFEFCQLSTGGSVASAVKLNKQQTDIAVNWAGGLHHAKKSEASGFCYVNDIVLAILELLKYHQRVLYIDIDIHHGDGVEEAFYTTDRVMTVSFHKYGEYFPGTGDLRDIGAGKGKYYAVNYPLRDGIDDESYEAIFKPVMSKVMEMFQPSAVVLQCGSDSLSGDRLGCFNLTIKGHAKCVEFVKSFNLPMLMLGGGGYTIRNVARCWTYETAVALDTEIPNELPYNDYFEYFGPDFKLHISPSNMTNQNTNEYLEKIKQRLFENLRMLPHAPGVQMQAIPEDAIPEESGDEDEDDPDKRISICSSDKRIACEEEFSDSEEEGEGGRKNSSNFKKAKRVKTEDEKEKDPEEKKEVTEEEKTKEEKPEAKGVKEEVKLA
Chain of Histone deacetylase 3 (O15379 whole entry): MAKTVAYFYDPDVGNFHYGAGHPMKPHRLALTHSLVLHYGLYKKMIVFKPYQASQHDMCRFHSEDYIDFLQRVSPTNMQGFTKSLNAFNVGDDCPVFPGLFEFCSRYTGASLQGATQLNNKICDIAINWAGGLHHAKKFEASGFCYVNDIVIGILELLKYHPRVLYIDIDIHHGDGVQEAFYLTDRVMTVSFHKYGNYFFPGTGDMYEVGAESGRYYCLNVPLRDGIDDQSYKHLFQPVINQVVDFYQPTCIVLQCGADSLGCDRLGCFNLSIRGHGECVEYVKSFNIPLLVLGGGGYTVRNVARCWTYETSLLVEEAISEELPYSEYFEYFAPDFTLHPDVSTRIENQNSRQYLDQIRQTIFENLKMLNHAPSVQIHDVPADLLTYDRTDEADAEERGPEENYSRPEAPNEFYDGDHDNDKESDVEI

Structure (SMILES): CC(=O)O[C@H]1C(=O)[C@@]2(C)[C@H]([C@H](OC(=O)c3ccccc3)[C@]3(O)C[C@H](OC(=O)[C@H](O)[C@@H](NC(=O)c4ccccc4)c4ccccc4)C(C)=C1C3(C)C)[C@]1(OC(C)=O)CO[C@@H]1C[C@@H]2O [PACLITAXEL]
inhibition in vivo at 5 mg/kg (BE(2)-C [1]): 30%
inhibition in vivo at 5 mg/kg (BE(2)-C [2]): 44%

Structure (SMILES): O=C(/C=C/c1cccc(S(=O)(=O)n2ccc3cccnc32)c1)NO
IC50 [3]: 32 nM
IC50 (U-87 MG [4]): 1850 nM
IC50 (C6 [5]): 2250 nM
Survival (U-87 MG [6]): >20 days
Survival (C6 [7]): >20 days

Structure (SMILES): Cn1cc(CCCC(=O)Nc2ccc(C(=O)NO)cc2)c2ccccc21
IC50 (U-266): 160 nM
IC50 (U-937): 160 nM
IC50 (HepG2 [8]): 160 nM
IC50 (Calu-3): 160 nM
IC50 (cells): 160 nM
IC50 (MDA-MB-231): 160 nM
IC50 (MDA-MB-468): 160 nM
IC50 (SK-OV-3 [9]): 160 nM
IC50 (K562): 160 nM
IC50 (PANC-1): 160 nM
IC50 (Histone deacetylase 3): 13.9 nM
inhibition in vivo at 50 mg/kg (HepG2 [10]): 33.1%

The next lines start with results.

IC50 [3]: 180 nM
IC50 (SK-OV-3 [11]): 870 nM
IC50 (A2780): 5400 nM
Structure (SMILES): COc1ccc(-c2cc(-c3ccc(C(C)C)cc3)cnc2NCc2ccc(C(=O)NO)cc2)cc1
Activity (SK-OV-3 [12]): ~35%

IC50 [3]: 450 nM
IC50 (A549): 1410 nM
IC50 (HepG2 [13]): 1410 nM
IC50 (Histone deacetylase 1): 22 nM
IC50 (HT-29): 1410 nM
IC50 (HCT-116): 1410 nM
Structure (SMILES): COc1ccc2c3ccnc(C)c3n(CC3CCN(c4ncc(C(=O)NO)cn4)CC3)c2c1
IC50 [14]: 11300 nM
IC50 [15]: 18500 nM
